Test results reported in ChEMBL document CHEMBL5465560, “Selectivity Literature for EUbOPEN Chemogenomic Library” (2024).

Tests used:
[1] = molecular target: Receptor-interacting serine/threonine-protein kinase 2 (Homo sapiens, UniProt O43353); test: Selectivity interaction (LanthaScreen Eu Kinase Binding Assay) EUB0001632a RIPK2; conditions: at 10 µM
[2] = molecular target: MAP kinase-activated protein kinase 2 (Homo sapiens, UniProt P49137); test: Selectivity interaction (Kinase panel (Z-LYTE Assay)) EUB0001632a MAPKAPK2; conditions: at 10 µM
[3] = system: Epidermal growth factor receptor (Homo sapiens), P00533 [UNDEFINED MUTATION]; test: Selectivity interaction (KinomeScan (DiscoverX)) EUB0000666a EGFR; conditions: at 10 µM
[4] = molecular target: Rho-associated protein kinase 1 (Homo sapiens) (UniProt Q13464); test: Selectivity interaction (KinomeScan (DiscoverX)) EUB0000666a ROCK1; conditions: at 10 µM
[5] = molecular target: T1, Membrane-associated tyrosine- and threonine-specific cdc2-inhibitory kinase (Homo sapiens) (UniProt Q99640); conditions: at 10 µM
T1 sequence (whole entry): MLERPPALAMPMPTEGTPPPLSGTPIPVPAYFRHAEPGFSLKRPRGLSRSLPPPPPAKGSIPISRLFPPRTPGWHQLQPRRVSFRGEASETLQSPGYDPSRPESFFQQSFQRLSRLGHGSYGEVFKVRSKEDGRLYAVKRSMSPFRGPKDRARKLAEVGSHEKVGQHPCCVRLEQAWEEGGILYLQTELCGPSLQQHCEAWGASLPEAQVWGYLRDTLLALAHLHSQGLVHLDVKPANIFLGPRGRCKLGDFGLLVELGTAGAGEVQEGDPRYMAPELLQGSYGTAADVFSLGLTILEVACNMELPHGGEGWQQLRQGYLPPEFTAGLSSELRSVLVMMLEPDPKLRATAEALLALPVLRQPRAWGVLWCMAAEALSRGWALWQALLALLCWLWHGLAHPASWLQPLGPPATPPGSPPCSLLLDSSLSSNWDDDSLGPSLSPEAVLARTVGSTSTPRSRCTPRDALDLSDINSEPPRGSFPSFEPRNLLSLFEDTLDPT

[6] = molecular target: T2, 5'-AMP-activated protein kinase catalytic subunit alpha-1 (Homo sapiens, UniProt Q13131); test: Selectivity interaction (ActivX KiNativ screen (kinase selectivity in THP-1 cell lysates)) EUB0000639a PRKAA1; format: subcellular; conditions: lysate, at 0.01 µM
[7] = molecular target: Ribosomal protein S6 kinase beta-1 (Homo sapiens, UniProt P23443); test: Selectivity interaction (ActivX KiNativ screen (kinase selectivity in THP-1 cell lysates)) EUB0000639a RPS6KB1; format: subcellular; conditions: lysate, at 5 µM
[8] = molecular target: T3, Dual specificity mitogen-activated protein kinase kinase 4 (Homo sapiens) (UniProt P45985); test: Selectivity interaction (KinomeScan (DiscoverX)) EUB0000695a MAP2K4; conditions: at 100 nM
T3 sequence (whole entry): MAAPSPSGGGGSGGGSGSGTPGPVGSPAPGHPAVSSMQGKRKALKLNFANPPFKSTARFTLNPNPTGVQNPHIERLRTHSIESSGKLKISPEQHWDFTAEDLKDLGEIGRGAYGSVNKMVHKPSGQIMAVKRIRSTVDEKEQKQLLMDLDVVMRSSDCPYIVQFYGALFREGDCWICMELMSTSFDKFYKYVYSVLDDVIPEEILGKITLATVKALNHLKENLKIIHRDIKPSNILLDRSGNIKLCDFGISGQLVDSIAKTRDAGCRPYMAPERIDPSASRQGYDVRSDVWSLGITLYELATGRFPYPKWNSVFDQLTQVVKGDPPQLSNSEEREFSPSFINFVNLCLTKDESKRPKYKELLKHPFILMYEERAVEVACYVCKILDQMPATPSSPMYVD

[9] = molecular target: Serine/threonine-protein kinase pim-2 (Homo sapiens, UniProt Q9P1W9); test: Selectivity interaction (Enzymatic assay (Eurofins)) EUB0001049a PIM2
[10] = molecular target: Protein-tyrosine kinase 2-beta (Homo sapiens) (UniProt Q14289); test: Selectivity interaction (KinomeScan (DiscoverX)) EUB0001049a PTK2B; conditions: at 1 µM
[11] = molecular target: Calcium/calmodulin-dependent protein kinase type II subunit alpha (Homo sapiens, UniProt Q9UQM7); test: Selectivity interaction (Kinase screening (Upstate/Millipore)) EUB0000604a CAMK2A
[12] = molecular target: T4, Hormonally up-regulated neu tumor-associated kinase (Homo sapiens) (UniProt P57058); test: Selectivity interaction (Ambit KINOMEscan and KiNATiv profiling in Jurkat cells) EUB0000090b HUNK; format: cell-based; conditions: at 1 µM
T4 sequence (whole entry): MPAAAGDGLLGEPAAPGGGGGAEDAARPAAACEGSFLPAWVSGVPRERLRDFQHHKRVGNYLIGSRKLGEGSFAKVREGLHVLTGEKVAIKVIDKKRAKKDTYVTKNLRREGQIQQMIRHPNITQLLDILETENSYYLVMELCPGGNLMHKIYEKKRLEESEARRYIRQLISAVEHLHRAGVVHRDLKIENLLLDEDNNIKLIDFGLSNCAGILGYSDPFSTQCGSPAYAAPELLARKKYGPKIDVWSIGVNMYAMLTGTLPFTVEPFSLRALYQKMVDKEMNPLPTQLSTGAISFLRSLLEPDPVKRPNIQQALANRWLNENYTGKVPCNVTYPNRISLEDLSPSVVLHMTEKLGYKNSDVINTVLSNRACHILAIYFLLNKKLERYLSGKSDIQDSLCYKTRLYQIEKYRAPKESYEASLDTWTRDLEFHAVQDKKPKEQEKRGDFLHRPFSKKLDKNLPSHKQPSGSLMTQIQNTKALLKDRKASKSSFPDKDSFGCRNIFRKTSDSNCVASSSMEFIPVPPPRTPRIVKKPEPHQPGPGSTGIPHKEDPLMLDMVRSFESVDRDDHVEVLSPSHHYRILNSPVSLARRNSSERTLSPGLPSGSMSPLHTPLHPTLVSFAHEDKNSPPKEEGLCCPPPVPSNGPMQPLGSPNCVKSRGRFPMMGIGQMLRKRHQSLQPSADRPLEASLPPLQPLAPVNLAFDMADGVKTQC

[13] = molecular target: RAC-gamma serine/threonine-protein kinase (Homo sapiens, UniProt Q9Y243); test: Selectivity interaction (Kinase panel (DSF assay)) EUB0001558a AKT3
[14] = molecular target: Dual specificity testis-specific protein kinase 1 (Homo sapiens) (UniProt Q15569); test: Selectivity interaction (KinomeScan (DiscoverX)) EUB0000655a TESK1; conditions: at 10 µM
[15] = molecular target: Cyclin-dependent kinase 8 (Homo sapiens, UniProt P49336); test: Selectivity interaction (KinomeScan (DiscoverX)) EUB0000045b CDK8
[16] = molecular target: Tyrosine-protein kinase Fgr (Homo sapiens) (UniProt P09769); test: Selectivity interaction (KinomeScan (DiscoverX)) EUB0001079a FGR; conditions: at 1 µM
[17] = molecular target: 5'-AMP-activated protein kinase catalytic subunit alpha-2 (Homo sapiens) (UniProt P54646); test: Selectivity interaction (Kinase panel (KiNativ target engagement assay in Jurkat cells)) EUB0001635a PRKAA2; format: cell-based; conditions: at 1 µM
[18] = molecular target: T2, 5'-AMP-activated protein kinase catalytic subunit alpha-1; test: Selectivity interaction (KinomeScan (DiscoverX)) EUB0001619a PRKAA1; conditions: at 1 µM

T2 sequence (Q13131 whole entry, looked up): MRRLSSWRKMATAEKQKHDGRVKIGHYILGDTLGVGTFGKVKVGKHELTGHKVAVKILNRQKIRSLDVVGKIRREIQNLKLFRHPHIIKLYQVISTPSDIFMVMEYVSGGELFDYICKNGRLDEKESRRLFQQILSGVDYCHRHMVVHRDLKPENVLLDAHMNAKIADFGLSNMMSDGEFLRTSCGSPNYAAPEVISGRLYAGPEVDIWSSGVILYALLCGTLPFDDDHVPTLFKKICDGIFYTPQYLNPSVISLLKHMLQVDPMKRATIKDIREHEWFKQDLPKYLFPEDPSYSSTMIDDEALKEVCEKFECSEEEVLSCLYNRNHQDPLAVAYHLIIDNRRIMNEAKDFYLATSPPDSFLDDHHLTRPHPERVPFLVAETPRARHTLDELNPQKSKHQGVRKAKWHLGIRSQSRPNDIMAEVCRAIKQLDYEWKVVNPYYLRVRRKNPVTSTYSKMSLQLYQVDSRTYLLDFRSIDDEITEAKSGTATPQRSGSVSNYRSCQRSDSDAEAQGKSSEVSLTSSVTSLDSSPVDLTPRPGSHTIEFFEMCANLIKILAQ
Chain of Cyclin-dependent kinase 8 (P49336 whole entry): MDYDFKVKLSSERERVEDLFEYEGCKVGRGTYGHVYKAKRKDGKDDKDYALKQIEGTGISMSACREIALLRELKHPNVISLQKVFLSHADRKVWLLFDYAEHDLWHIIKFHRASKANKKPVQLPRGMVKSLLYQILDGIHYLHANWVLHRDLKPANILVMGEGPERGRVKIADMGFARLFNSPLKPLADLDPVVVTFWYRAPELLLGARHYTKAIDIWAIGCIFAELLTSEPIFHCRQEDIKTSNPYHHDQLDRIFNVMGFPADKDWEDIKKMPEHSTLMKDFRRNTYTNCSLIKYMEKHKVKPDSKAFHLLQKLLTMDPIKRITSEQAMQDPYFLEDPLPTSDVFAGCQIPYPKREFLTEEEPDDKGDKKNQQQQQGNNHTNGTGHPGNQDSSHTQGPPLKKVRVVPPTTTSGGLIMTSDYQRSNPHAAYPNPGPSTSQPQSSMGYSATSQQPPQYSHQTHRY
Chain of Calcium/calmodulin-dependent protein kinase type II subunit alpha (Q9UQM7 whole entry): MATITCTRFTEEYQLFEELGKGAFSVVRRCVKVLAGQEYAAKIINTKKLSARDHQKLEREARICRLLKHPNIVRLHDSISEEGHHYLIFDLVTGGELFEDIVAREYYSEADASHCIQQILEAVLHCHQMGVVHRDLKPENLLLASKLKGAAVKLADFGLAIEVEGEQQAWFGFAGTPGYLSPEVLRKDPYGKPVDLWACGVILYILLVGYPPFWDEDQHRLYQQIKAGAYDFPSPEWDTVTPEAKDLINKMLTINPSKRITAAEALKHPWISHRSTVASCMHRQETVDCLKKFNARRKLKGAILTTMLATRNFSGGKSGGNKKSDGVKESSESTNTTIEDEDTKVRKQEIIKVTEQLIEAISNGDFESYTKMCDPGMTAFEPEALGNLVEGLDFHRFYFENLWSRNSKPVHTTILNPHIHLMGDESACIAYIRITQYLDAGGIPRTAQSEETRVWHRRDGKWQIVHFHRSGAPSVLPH
Chain of Ribosomal protein S6 kinase beta-1 (P23443 whole entry, looked up): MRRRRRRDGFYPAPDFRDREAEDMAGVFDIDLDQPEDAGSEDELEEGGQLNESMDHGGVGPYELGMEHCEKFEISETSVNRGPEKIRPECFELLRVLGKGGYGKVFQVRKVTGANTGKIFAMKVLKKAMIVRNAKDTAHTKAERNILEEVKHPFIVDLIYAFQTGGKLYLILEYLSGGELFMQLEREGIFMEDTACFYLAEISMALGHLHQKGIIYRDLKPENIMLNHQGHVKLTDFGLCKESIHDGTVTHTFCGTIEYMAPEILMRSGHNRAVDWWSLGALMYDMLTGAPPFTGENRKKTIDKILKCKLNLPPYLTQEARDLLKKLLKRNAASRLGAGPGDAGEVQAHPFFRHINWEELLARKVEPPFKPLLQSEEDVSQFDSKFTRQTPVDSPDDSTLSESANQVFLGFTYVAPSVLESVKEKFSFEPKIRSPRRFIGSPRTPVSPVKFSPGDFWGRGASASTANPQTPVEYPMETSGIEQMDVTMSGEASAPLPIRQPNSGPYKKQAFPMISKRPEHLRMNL
Chain of MAP kinase-activated protein kinase 2 (P49137 whole entry, looked up): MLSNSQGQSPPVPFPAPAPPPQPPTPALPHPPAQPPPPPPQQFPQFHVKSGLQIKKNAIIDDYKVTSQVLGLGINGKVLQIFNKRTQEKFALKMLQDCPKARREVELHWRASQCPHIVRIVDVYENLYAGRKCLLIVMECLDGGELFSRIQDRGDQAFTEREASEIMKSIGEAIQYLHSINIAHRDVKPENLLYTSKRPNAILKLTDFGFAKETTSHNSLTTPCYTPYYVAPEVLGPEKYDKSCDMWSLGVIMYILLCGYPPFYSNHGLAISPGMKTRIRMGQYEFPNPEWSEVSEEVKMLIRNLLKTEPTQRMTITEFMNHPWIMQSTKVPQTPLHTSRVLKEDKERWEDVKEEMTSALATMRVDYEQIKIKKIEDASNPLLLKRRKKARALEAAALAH
Chain of Dual specificity testis-specific protein kinase 1 (Homo sapiens) (Q15569 whole entry, looked up): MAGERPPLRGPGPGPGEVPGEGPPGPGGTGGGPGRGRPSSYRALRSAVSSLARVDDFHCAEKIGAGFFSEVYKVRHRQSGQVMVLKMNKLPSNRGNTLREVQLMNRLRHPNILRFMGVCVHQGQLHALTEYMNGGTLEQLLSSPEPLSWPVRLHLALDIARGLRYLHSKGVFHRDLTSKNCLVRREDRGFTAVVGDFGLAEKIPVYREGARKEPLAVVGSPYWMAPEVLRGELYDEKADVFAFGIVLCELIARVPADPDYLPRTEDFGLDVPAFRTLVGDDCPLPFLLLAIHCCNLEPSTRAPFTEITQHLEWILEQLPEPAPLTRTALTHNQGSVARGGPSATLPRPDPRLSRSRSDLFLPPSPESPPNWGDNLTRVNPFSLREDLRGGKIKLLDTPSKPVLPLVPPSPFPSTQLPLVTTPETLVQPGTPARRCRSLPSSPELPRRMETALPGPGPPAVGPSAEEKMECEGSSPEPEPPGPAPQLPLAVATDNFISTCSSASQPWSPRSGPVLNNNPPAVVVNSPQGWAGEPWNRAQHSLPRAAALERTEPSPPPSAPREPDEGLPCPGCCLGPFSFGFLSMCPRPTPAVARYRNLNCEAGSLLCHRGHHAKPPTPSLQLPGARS
Chain of RAC-gamma serine/threonine-protein kinase (Q9Y243 whole entry): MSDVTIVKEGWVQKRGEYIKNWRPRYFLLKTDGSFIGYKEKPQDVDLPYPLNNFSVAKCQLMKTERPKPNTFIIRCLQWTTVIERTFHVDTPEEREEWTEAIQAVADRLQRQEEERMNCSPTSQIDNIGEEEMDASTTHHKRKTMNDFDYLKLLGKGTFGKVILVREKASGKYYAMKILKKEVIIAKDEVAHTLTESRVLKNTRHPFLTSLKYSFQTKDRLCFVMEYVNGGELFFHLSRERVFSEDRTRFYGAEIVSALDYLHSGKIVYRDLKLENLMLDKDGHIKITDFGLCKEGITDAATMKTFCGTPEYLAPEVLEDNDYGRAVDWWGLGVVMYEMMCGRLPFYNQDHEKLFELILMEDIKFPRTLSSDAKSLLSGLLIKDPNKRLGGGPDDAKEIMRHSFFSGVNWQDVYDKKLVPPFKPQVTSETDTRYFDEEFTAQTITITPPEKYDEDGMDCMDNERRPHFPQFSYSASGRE
Chain of Epidermal growth factor receptor (Homo sapiens), P00533 [UNDEFINED MUTATION] (P00533 whole entry, looked up, change not shown): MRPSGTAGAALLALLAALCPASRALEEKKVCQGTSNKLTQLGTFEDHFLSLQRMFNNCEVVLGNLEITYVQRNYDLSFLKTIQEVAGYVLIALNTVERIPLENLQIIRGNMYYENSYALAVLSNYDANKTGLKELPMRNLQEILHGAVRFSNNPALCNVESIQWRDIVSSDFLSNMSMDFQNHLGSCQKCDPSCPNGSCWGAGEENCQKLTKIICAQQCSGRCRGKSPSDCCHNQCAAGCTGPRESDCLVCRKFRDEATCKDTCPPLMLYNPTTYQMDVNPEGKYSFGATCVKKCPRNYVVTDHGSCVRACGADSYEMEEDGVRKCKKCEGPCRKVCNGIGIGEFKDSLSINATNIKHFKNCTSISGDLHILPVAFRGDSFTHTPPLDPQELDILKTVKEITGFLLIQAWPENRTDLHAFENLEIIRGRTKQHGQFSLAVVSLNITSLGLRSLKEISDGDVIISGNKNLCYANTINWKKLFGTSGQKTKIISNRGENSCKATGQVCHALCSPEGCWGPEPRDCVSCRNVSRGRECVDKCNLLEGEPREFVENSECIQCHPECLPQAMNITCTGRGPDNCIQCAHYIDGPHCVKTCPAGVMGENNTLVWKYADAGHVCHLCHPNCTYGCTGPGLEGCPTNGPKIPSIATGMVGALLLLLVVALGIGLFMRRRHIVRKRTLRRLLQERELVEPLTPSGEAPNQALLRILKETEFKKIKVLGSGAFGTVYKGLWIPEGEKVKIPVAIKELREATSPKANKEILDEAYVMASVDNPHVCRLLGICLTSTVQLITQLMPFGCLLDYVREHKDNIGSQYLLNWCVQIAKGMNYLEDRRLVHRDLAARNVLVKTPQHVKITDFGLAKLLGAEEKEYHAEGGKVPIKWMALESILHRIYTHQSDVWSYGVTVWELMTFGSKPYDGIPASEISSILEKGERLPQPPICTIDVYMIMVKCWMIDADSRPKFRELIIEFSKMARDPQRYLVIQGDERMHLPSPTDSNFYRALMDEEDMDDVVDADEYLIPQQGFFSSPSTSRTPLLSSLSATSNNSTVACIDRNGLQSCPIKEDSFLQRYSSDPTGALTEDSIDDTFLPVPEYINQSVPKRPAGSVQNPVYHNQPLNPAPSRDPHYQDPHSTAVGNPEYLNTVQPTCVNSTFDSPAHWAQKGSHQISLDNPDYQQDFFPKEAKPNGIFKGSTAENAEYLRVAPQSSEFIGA

Cn1cc(-n2cnc3c(NCc4nc5cc(Cl)c(Cl)cc5[nH]4)nc(N4CCOCC4)nc32)cn1
% of inhibition [1]: -13.3% | % of control [2]: -2.67%

O=C(NOC[C@H](O)CO)c1ccc(F)c(F)c1Nc1ccc(I)cc1F
% of control [3]: 70% | % of control [4]: 100%

CCN(CC)CCCCNc1ncc2cc(-c3cc(OC)cc(OC)c3)c(NC(=O)NC(C)(C)C)nc2n1
% of control [5]: 100%

CC[C@@H]1[C@H](F)C(=O)N[C@@H]1COc1nccc2cc(C(N)=O)c(OC)cc12 [ZIMLOVISERTIB]
% of inhibition [6]: 7.8% | % of inhibition [7]: 3.9%

Cc1cc(F)c(C(=O)Nc2cccc(-c3nncn3C(C)C)n2)cc1-n1cnc(C2CC2)c1
% of control [8]: 100%

COc1cc(Nc2nc(C)cc(-c3cnn4nc(OC)ccc34)n2)cc(C(F)(F)F)c1
IC50 [9]: > 10 µM | % of control [10]: 99%

Cc1cnc(Nc2ccc(F)cc2Cl)nc1-c1c[nH]c(C(=O)N[C@H](CO)c2cccc(Cl)c2)c1
% of inhibition [11]: 1%

CN(C)C/C=C/C(=O)Nc1ccc(C(=O)N2CCCC(Nc3ncc(Cl)c(-c4c[nH]c5ccccc45)n3)C2)cc1 (centres undefined)
% of control [12]: 80%

CC(C)(O)[C@H](F)CN1Cc2cc(NC(=O)c3cnn4cccnc34)c(N3CCOCC3)cc2C1=O
dTM [13]: 0.1 K

CN(C)CCOc1ccc(-c2nc(-c3ccncc3)c(-c3ccc4c(c3)CC/C4=N\O)[nH]2)cc1
% of control [14]: 76%

C=CC(=O)Nc1cc(-n2c(=O)ccc3cnc4ccc(-c5ccc(NS(C)(=O)=O)cc5)cc4c32)ccc1C
% of control ([15]; at 1 µM): 76% | % of control ([15]; at 10 µM): 62%

Nc1cnc(N2CCc3cc(S(=O)(=O)Nc4c(F)cc(Cl)cc4F)cc(N4CCCC4=O)c32)nc1 [TP-020n]
% of control [16]: 100%

C=CC(=O)Nc1ccc(C(=O)Nc2[nH]nc3c2CN(C(=O)N[C@H](CN(C)C)c2ccccc2)C3(C)C)cc1
% of engagement [17]: 53.5%

N#Cc1cccc(-c2c[nH]c3ncnc(N4CCOCC4)c23)c1
% of control [18]: 71%
